This is an account of results in publication PMC6150311, “Proline-Based Carbamates as Cholinesterase Inhibitors” (Molecules : A Journal of Synthetic Chemistry and Natural …, 2017).

SMILES strings stand for the structures.

The target of assay [1] is T1, AChE from electric eel (Electrophorus electricus) (Electrophorus electricus, UniProt O42275).
T1 construct: AChE (from electric eel) and BChE (from equine serum); purchased Sigma, St. Louis, MO, USA; host or cells: electric eel (animal source)
The assay can be described thus: In vitro AChE inhibition, modified Ellman's method. The class given is biochemical. How it is done:
(§1) The ability of all prepared compounds to inhibit AChE from electric eel (Electrophorus electricus) and BChE from equine serum (both purchased from Sigma, St. Louis, MO, USA) was determined in vitro using a modified Ellman’s method. […] The Ellman’s method is widely used for measuring cholinesterase activity and the effectivity of ChEIs. It is a simple, rapid and direct method to determine SH and –S–S– groups content in proteins. Cholinesterase activity is measured indirectly by quantifying the concentration of 5-thio-2-nitrobenzoic acid (TNB) ion formed in the reaction between disulfide reagent 5,5′-dithiobis-2-nitrobenzoic acid (DTNB) and thiocholine, a product of substrate (i.e., acetylthiocholine, ATCh) hydrolysis catalyzed by cholinesterase.
(§2) All tested compounds were dissolved in DMSO (concentration 0.01 M) and diluted in demineralized water (concentrations 0.001 M and 0.0001 M). The ability of tested compounds to inhibit AChE (from electric eel) and BChE (from equine serum) was determined using the modified Ellman’s method at 25 °C in the presence of phosphate buffered saline (PBS, 0.1 M, pH 7.4) in a glass cuvette with 1 cm optical path. The enzyme activity in total reaction mixture (2 mL) was 0.2 U/mL, the concentration of substrate ATCh 40 μM and the concentration of DTNB 0.1 mM for all reactions. The IC50 value was obtained from the dependence of v0/vi on the concentration of the tested compound (inhibitor), where v0 is the reaction rate of uninhibited reaction and vi is the reaction rate of inhibited reaction (for the given concentration of the inhibitor). First, v0 was determined. Into the cuvette PBS (0.1 M, pH 7.4), DTNB and ATCh were placed. The enzymatic reaction was started by adding the enzyme. […] The measurement was performed in triplicate at least, and average v0 was determined. Then, vi (for the given concentration of the inhibitor) was determined. Into the cuvette DTNB, ATCh, a chosen volume of the suitably diluted inhibitor (to achieve the required concentration of the inhibitor in the total reaction mixture) and a certain volume of PBS (to achieve the total volume of the reaction mixture 2 mL after adding the enzyme) were placed. The enzymatic reaction was started by adding the enzyme. […] For determination of IC50 values, twelve different concentrations of inhibitor were used and each measurement was performed in triplicate at least.
Background: Ellman's reagent forms a yellow product with free thiols.

Another assay addresses T2, BChE from equine serum (Equus caballus, UniProt P81908).
T2 construct: BChE (from equine serum); purchased Sigma, St. Louis, MO, USA; host or cells: equine serum
Nature of the assay: In vitro BChE inhibition, modified Ellman's method. Conditions: for SI (index selectivity) = IC50 (AChE)/IC50 (BChE): ratio AChE/BChE, higher = more selective to BChE; for selectivity to BChE (in words): BChE vs AChE. The class given is biochemical. The protocol: as §1, §2

In assay [2] the test system is human monocytic leukemia THP-1 cells. The assay can be described thus: In vitro cytotoxicity assay (WST-1). Type of assay: cell-based. Conditions: 24 h, highest tested concentration 30 μM, read-out: tox. IC50. The protocol: The cytotoxicity was evaluated as the IC50 value (compound concentration causing 50% inhibition of cell population proliferation) (see Table 1). […] Based on these observations, it can be concluded that the discussed compounds can be considered as non-toxic agents for subsequent design of novel drugs.
Human monocytic leukemia THP-1 cells were used for in vitro toxicity assay. Cells were obtained from the European Collection of Cell Cultures (ECACC, Salisbury, UK) and routinely cultured in RPMI 1640 (Lonza, Verviers, Belgium) medium supplemented with 10% fetal bovine serum (FBS, Sigma), 2% L-glutamine, 1% penicillin and streptomycin (Lonza, Verviers, Belgium) at 37 °C with 5% CO2. Cells were passaged at approximately one week intervals. The cytotoxicity of the compounds was determined using a WST-1 assay kit (Roche Diagnostics, Mannheim, Germany) according to the manufacturer’s instructions. The tested compounds were dissolved in DMSO and added in five increasing concentrations (0.37, 1.1, 3.3, 10, and 30 μM) to the cell suspension in the culture RPMI 1640 medium. The maximum concentration of DMSO (Sigma) in the assays never exceeded 0.1%. Subsequently, the cells were incubated for 24 h at 37 °C with 5% CO2. For WST-1 assays, cells were seeded into 96-well plates (5 × 10^4 cells/well in 100 μL culture medium) in triplicate in serum-free RPMI 1640 medium, and measurements were taken 24 h after the treatment with the compounds. The median inhibition concentration values, IC50, were deduced through the production of a dose-response curve. All data were evaluated using the GraphPad Prism 5.00 software (GraphPad Software, San Diego, CA, USA).
Background: Tetrazolium dyes change colour on reduction, which living cells bring about.

The term IC50 denotes the midpoint of a concentration-inhibition curve.

T2 sequence (P81908 whole entry): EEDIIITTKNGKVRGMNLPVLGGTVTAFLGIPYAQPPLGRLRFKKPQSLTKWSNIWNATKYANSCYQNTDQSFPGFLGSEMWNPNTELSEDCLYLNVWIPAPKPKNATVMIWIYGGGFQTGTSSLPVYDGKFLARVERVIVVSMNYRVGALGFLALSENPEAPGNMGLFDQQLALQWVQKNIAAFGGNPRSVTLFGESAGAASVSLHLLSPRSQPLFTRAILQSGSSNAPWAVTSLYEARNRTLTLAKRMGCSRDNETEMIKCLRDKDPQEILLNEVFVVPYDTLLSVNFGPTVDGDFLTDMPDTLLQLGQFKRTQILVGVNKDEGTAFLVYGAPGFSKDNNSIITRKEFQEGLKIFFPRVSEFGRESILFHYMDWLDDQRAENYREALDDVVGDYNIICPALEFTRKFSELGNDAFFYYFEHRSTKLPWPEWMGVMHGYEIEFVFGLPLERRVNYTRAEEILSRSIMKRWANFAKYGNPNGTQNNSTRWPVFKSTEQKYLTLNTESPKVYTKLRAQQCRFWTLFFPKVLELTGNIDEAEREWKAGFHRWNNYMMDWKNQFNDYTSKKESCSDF
T1 sequence (O42275 24-633): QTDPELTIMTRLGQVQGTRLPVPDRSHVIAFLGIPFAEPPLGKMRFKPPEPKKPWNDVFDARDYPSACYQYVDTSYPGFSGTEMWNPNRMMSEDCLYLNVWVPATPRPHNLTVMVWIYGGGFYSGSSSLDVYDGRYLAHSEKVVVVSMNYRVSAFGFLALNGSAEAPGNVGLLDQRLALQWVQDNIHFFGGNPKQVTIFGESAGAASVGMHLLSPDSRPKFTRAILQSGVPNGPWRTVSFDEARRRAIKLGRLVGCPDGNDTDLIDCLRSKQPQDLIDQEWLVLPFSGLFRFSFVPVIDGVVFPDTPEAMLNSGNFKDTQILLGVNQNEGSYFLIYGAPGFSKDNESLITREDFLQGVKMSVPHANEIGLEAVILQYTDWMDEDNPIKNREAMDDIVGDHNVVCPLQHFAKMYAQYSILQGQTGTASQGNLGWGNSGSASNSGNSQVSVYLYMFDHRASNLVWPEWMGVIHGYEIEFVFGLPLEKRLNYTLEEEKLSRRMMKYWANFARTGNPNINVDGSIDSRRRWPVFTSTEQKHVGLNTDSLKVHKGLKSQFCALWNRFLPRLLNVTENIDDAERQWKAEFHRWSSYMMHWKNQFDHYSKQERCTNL

In the case of `COc1ccccc1NC(=O)[C@@H]1CCCN1C(=O)OCc1ccccc1` [Compound 2a, Benzyl (2S)-2-[(2-methoxyphenyl)carbamoyl]pyrrolidine-1-carboxylate], the IC50 is 131 ± 1.29 µM in assay [1], 51.5 ± 0.75 µM on BChE from equine serum and over 30 µM in assay [2]. Moreover, the “SI (index selectivity) = IC50 (AChE)/IC50 (BChE)” value (shortened to “SI (index selectivity) = IC50”) at BChE from equine serum came out at 2.54.

As for `O=C(Nc1cccc(C(F)(F)F)c1)[C@@H]1CCCN1C(=O)OCc1ccccc1` [Compound 7b, Benzyl (2S)-2-{[3-(trifluoromethyl)phenyl]carbamoyl}pyrrolidine-1-carboxylate], the values for the IC50 (in assay [1]; against BChE from equine serum; in assay [2]) were 68.91 ± 0.06 µM, 39.5 ± 1.4 µM and over 30 µM, respectively. At BChE from equine serum, the “SI (index selectivity) = IC50” value amounted to 1.75.

On to `COc1ccc(NC(=O)[C@@H]2CCCN2C(=O)OCc2ccccc2)cc1` [Compound 2c, Benzyl (2S)-2-[(4-methoxyphenyl)carbamoyl]pyrrolidine-1-carboxylate], for which the IC50 in assay [1] is 109.4 ± 0.22 µM; against BChE from equine serum it was 117.4 ± 0.45 µM; in assay [2], over 30 µM. Also, on BChE from equine serum, the “SI (index selectivity) = IC50” value is given as 0.93.

Turning to `O=C(Nc1ccccc1)[C@@H]1CCCN1C(=O)OCc1ccccc1` [Compound 1, Benzyl (2S)-2-(phenylcarbamoyl)pyrrolidine-1-carboxylate], the IC50 in assay [1] is 106 ± 2.2 µM; at BChE from equine serum, 55.6 ± 1.01 µM; in assay [2], over 30 µM. Besides, the “SI (index selectivity) = IC50” value at BChE from equine serum was 1.91.

On to `O=C(Nc1ccccc1O)[C@@H]1CCCN1C(=O)OCc1ccccc1` [Compound 9a, Benzyl (2S)-2-[(2-hydroxyphenyl)carbamoyl]pyrrolidine-1-carboxylate], for which the IC50 was 153 ± 9.97 µM in assay [1], 42 ± 1.26 µM at BChE from equine serum and over 30 µM in assay [2]. Further, the “selectivity to BChE (in words)” value on BChE from equine serum is given as “greater selectivity to BChE”. At BChE from equine serum, the “SI (index selectivity) = IC50” value worked out at 3.65.

In assay [1], `O=C(Nc1ccccc1Br)[C@@H]1CCCN1C(=O)OCc1ccccc1` [Compound 6a, Benzyl (2S)-2-[(2-bromophenyl)carbamoyl]pyrrolidine-1-carboxylate] came in with an IC50 of 84.1 ± 4.39 µM. Also, at BChE from equine serum, the IC50 worked out at 27.4 ± 0.85 µM, the “selectivity to BChE (in words)” value is “greater selectivity to BChE” and the “SI (index selectivity) = IC50” value came to 3.07. In assay [2], the IC50 was over 30 µM.
